Source: the supplement of paper PMC12463676, “Small-molecule dissolution of stress granules by redox modulation benefits ALS models” (Nature Chemical Biology, 2025)

Legend:
lipoamide = compound: NC(=O)CCCCC1CCSS1 [lipoamide]; test: thermal stability z-score vs DMSO; higher = more thermally stabilized by treatment; conditions: HeLa, lipoamide concentration 100 µM
Description: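 Cellular thermal proteome profiling in HeLa cells. Cells were treated with 100 µM lipoamide for 1 h, with or without 1 mM arsenate for a further 1 h, then heated to ten temperatures (37-66.3 °C), and soluble protein was quantified by TMT mass spectrometry relative to 0.1% DMSO controls. The thermal stability score (sum of log2 fold changes minus the abundance score) was transformed to a z-score; mean of n = 3 experiments.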

potassium arsenate = compound: O=[As]([O-])(O)O.[K+] [potassium arsenate]; test: as above; conditions: HeLa; arsenate concentration 1 mM
Description: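 Cellular thermal proteome profiling in HeLa cells treated with 1 mM arsenate for 1 h (DMSO pretreatment), heated to ten temperatures (37-66.3 °C). Soluble protein was quantified by TMT mass spectrometry relative to DMSO controls; the thermal stability score was transformed to a z-score; mean of n = 3 experiments.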

[1] = arsenate co-treatment: 1 mM arsenate 1 h
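Note: each temperature applied for 3 min, abundance score taken as mean log2 fold change at the two lowest temperatures, z-score obtained by mean subtraction and division by SD.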

Chain of UniProt O00429 (O00429 whole entry): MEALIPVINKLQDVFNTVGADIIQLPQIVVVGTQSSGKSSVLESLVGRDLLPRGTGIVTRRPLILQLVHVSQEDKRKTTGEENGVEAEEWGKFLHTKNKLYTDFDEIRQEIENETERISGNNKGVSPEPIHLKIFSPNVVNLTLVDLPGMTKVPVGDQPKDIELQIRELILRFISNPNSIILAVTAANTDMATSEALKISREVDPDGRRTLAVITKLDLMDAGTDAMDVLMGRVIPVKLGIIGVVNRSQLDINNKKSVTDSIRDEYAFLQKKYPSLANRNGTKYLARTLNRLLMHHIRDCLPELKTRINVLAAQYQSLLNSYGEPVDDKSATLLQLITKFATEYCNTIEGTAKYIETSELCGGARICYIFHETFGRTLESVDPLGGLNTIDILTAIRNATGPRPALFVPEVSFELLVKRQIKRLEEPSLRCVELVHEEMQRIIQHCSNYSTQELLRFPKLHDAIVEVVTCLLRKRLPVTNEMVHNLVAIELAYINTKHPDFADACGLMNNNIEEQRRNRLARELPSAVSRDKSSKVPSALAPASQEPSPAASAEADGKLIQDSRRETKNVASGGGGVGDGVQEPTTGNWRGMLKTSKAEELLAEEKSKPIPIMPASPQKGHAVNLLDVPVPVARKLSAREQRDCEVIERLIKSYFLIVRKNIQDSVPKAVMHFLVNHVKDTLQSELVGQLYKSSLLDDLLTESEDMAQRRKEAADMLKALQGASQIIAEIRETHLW
Chain of UniProt Q96G46 (Q96G46 whole entry): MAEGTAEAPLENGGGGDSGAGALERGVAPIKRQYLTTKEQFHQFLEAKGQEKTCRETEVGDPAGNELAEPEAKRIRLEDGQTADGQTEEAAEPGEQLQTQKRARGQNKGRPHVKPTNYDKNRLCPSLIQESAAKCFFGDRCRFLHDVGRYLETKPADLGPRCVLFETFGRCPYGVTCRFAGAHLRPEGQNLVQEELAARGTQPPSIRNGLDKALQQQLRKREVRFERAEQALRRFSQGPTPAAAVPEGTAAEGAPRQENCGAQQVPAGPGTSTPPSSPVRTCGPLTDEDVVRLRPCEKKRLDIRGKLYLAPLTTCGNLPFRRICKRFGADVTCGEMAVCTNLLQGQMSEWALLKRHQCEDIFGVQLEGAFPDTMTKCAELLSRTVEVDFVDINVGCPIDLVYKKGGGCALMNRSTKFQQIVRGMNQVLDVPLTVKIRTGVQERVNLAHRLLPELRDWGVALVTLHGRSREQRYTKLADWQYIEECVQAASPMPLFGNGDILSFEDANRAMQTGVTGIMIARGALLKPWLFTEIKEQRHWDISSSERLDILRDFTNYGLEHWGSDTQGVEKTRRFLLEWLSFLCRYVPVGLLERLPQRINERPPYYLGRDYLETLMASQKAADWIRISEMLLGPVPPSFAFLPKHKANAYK
Chain of UniProt Q92785 (Q92785 whole entry): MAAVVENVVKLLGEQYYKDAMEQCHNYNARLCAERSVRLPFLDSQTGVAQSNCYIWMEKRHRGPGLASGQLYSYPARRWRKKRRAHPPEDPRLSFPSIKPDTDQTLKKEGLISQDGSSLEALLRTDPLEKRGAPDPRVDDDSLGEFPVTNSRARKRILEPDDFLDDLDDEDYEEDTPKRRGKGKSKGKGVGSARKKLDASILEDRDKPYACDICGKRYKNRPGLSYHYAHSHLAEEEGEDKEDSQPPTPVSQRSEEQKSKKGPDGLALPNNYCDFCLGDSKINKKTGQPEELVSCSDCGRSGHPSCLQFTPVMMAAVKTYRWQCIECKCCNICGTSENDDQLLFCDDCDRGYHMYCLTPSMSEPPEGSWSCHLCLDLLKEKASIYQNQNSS
Chain of UniProt Q9BZ29 (Q9BZ29 whole entry): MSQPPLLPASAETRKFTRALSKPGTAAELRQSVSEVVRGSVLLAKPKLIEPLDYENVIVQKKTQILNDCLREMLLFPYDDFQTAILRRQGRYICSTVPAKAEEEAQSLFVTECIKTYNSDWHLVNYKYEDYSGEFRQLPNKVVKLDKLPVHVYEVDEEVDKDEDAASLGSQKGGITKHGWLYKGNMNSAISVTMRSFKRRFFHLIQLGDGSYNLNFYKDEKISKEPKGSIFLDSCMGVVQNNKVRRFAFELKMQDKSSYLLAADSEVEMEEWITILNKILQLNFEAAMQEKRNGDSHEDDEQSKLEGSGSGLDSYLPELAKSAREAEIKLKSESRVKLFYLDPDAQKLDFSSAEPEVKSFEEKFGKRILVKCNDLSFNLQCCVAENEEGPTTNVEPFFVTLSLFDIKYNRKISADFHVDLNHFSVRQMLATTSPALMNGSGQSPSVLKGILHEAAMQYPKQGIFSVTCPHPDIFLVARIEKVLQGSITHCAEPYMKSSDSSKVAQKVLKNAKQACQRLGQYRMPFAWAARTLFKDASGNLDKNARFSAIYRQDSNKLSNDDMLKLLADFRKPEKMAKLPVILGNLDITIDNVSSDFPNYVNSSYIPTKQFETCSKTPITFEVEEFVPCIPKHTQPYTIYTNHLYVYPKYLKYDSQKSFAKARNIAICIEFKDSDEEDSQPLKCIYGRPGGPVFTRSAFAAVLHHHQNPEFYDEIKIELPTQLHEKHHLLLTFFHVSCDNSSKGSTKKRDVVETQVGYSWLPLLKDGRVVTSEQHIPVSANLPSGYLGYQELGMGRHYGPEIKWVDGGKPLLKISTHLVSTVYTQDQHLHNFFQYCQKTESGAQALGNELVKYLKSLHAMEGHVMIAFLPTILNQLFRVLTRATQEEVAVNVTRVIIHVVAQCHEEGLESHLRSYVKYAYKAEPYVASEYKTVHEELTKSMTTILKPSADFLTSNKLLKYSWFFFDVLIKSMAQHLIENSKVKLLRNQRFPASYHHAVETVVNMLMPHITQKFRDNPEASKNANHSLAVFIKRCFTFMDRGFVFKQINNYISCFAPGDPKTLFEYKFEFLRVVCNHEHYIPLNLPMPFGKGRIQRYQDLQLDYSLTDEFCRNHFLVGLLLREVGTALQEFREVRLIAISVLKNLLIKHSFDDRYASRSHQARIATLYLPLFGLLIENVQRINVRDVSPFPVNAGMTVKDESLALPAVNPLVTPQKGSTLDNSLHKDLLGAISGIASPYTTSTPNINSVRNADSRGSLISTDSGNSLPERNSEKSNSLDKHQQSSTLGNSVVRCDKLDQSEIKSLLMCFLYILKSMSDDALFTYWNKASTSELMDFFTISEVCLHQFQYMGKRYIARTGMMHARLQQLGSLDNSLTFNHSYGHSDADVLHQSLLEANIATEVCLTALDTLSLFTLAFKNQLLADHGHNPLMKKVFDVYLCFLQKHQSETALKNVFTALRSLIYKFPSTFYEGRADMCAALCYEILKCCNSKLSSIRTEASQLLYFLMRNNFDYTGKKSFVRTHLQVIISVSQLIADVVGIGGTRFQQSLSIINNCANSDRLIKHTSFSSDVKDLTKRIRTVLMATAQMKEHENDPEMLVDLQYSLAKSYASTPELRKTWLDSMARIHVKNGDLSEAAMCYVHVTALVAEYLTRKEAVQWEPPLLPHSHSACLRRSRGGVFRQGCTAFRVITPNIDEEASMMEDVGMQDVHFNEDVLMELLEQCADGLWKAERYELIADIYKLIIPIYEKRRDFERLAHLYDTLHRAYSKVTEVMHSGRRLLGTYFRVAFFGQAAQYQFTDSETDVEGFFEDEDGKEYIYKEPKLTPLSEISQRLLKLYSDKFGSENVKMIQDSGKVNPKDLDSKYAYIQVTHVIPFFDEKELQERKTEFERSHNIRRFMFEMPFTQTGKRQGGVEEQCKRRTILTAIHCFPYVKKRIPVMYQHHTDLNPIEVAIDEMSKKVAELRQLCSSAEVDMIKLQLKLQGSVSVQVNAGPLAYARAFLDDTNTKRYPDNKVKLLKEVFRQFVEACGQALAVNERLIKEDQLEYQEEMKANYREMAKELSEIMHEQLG
Chain of UniProt Q99704 (Q99704 whole entry): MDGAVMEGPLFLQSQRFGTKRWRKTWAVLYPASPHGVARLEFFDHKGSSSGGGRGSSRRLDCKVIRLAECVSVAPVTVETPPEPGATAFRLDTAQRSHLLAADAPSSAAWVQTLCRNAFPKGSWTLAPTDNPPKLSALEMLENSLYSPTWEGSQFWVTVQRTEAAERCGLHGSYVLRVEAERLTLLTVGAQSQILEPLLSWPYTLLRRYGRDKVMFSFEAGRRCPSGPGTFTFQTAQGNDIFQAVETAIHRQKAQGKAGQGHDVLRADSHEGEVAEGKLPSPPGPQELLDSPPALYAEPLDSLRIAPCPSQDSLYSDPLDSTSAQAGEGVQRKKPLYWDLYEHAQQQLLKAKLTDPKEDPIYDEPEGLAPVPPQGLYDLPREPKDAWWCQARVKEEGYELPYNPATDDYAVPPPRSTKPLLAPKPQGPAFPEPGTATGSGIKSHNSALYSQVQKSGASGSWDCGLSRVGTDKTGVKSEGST
Chain of UniProt P55039 (P55039 whole entry): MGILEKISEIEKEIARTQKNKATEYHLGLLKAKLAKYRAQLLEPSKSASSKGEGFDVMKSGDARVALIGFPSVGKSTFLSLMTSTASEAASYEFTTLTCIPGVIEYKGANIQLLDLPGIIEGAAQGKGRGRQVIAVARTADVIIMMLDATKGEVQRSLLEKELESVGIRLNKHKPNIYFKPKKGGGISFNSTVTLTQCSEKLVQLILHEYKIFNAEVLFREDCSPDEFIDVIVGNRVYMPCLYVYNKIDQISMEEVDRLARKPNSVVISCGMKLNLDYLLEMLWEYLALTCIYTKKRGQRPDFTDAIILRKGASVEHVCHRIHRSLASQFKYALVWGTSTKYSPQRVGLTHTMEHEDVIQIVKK
Chain of UniProt P51452 (P51452 whole entry, looked up): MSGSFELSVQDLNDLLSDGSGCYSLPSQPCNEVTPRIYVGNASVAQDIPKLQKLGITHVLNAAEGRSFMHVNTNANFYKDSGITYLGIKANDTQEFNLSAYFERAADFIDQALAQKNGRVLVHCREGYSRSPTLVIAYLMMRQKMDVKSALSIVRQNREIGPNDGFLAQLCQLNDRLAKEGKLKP
Chain of UniProt Q96DA6 (Q96DA6 whole entry): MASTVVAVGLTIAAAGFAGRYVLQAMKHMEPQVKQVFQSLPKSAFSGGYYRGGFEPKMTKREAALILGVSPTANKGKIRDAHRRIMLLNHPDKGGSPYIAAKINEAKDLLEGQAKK

Target | thermal stability z-score (lipoamide; [1]) | thermal stability z-score (lipoamide; arsenate co-treatment: none) | thermal stability z-score (potassium arsenate)
DNAJC12 (UniProt Q9UKB3) | -0.279 | -0.182 | -0.108
DNAJC13 (UniProt O75165) | -0.118 | -0.226 | 0.201
DNAJC15 (UniProt Q9Y5T4) | 0.824 | 0.507 | -0.793
DNAJC16 (UniProt Q9Y2G8) | -0.913 | -2.01 | 0.00733
DNAJC17 (UniProt Q9NVM6) | 0.0174 | 0.0121 | -0.299
DNAJC19 (UniProt Q96DA6) | 0.522 | 0.211 | 0.253
DNAJC21 (UniProt Q5F1R6) | -0.615 | -0.205 | 0.00418
DNAJC25 (UniProt Q9H1X3) | -1.46 | -0.0502 | 0.282
DNAJC30 (UniProt Q96LL9) | -0.154 | -0.0708 | 0.0918
DNASE2 (UniProt O00115) | 0.424 | 0.747 | 0.114
DNM1L (UniProt O00429) | -0.508 | 0.234 | 0.237
DNM2 (UniProt P50570) | -0.494 | -0.287 | 0.304
DNMBP (UniProt Q6XZF7) | -0.142 | -0.138 | 0.897
DNMT1 (UniProt P26358) | -0.115 | 0.0323 | -0.517
DNPEP (UniProt Q9ULA0) | -0.183 | 0.0127 | 0.248
DNPH1 (UniProt O43598) | 0.0889 | -0.11 | -0.0373
DNTTIP2 (UniProt Q5QJE6) | 0.201 | 0.12 | 0.279
DOCK1 (UniProt Q14185) | -0.371 | -1.05 | 0.0692
DOCK5 (UniProt Q9H7D0) | -0.433 | -0.478 | -0.0423
DOCK6 (UniProt Q96HP0) | -0.406 | -0.347 | -0.391
DOCK7 (UniProt Q96N67) | -0.23 | 0.0599 | 0.962
DOCK9 (UniProt Q9BZ29) | -0.191 | -0.0295 | -0.457
DOCK10 (UniProt Q96BY6) | -0.106 | -0.259 | 0.0405
DOCK11 (UniProt Q5JSL3) | -0.016 | 0.0791 | -0.755

Target | thermal stability z-score (lipoamide; [1]) | thermal stability z-score (lipoamide; arsenate co-treatment: none) | thermal stability z-score (potassium arsenate)
DOHH (UniProt Q9BU89) | -0.0847 | 0.18 | 0.721
DOK1 (UniProt Q99704) | 0.221 | -0.608 | -0.45
DOPEY2 (UniProt Q9Y3R5) | 1.01 | 0.402 | -0.9
DPAGT1 (UniProt Q9H3H5) | -0.304 | 0.836 | -0.109
DPCD (UniProt Q9BVM2) | -0.929 | -0.513 | 0.0166
DPF2 (UniProt Q92785) | 2.86 | 2.98 | -5.05
DPH1 (UniProt Q9BZG8) | -0.233 | -0.119 | -1.29
DPH2 (UniProt Q9BQC3) | -0.0475 | -0.355 | -1.17
DPH5 (UniProt Q9H2P9) | 0.634 | 1.89 | -0.179
DPH6 (UniProt Q7L8W6) | -0.187 | -0.152 | -0.722
DPH7 (UniProt Q9BTV6) | -1.62 | 0.272 | 0.093
DPM1 (UniProt O60762) | 0.673 | 0.429 | 0.383
DPP3 (UniProt Q9NY33) | 0.77 | 0.569 | -0.00156
DPP7 (UniProt Q9UHL4) | 0.246 | 0.304 | -0.0217
DPP8 (UniProt Q6V1X1) | 0.32 | 0.543 | 0.257
DPP9 (UniProt Q86TI2) | -0.0984 | -0.0569 | 0.0941
DPY19L1 (UniProt Q2PZI1) | -0.0328 | -0.259 | -0.259
DPYD (UniProt Q12882) | 0.0898 | 0.178 | 0.0708
DPYSL2 (UniProt Q16555) | 0.645 | 0.115 | -0.691
DR1 (UniProt Q01658) | 0.466 | 0.257 | -0.043
DRAM2 (UniProt Q6UX65) | 0.00378 | -0.247 | 1.26
DRAP1 (UniProt Q14919) | -0.781 | -0.122 | -0.503
DRG1 (UniProt Q9Y295) | -0.143 | -0.213 | 0.121
DRG2 (UniProt P55039) | -0.439 | -0.192 | -0.395

Target | thermal stability z-score (lipoamide; [1]) | thermal stability z-score (lipoamide; arsenate co-treatment: none) | thermal stability z-score (potassium arsenate)
DROSHA (UniProt Q9NRR4) | -0.124 | -0.127 | 0.141
DSC2 (UniProt Q02487) | 2.38 | 5.06 | 1.77
DSCC1 (UniProt Q9BVC3) | 0.0551 | 0.0324 | -0.199
DSG1 (UniProt Q02413) | 11 | 13.3 | 1.69
DSG2 (UniProt Q14126) | -0.108 | 0.19 | 0.99
DSN1 (UniProt Q9H410) | 0.0417 | -0.0069 | 0.127
DSP (UniProt P15924) | 3.08 | 3.94 | -0.576
DST (UniProt Q03001) | 0.0624 | -0.113 | -0.103
DSTN (UniProt P60981) | 0.471 | 0.0123 | -1.22
DSTYK (UniProt Q6XUX3) | 0.0406 | -0.378 | -0.117
DTD1 (UniProt Q8TEA8) | 0.65 | 0.308 | 0.163
DTL (UniProt Q9NZJ0) | -0.0028 | -0.0193 | -0.408
DTNBP1 (UniProt Q96EV8) | 0.331 | 0.505 | -0.102
DTWD1 (UniProt Q8N5C7) | -0.492 | -0.205 | -0.742
DTWD2 (UniProt Q8NBA8) | -0.283 | 0.0338 | 0.0974
DTX2 (UniProt Q86UW9) | -0.228 | 0.0239 | -0.381
DTX3L (UniProt Q8TDB6) | -0.78 | -0.366 | 0.176
DTYMK (UniProt P23919) | -0.383 | 0.537 | -1.22
DUS1L (UniProt Q6P1R4) | 0.178 | -0.547 | 0.0119
DUS2 (UniProt Q9NX74) | -0.517 | 0.0964 | -0.452
DUS3L (UniProt Q96G46) | -0.321 | -0.548 | -0.458
DUSP3 (UniProt P51452) | 0.504 | 0.265 | -0.191
DUSP9 (UniProt Q99956) | 0.738 | 0.0584 | 0.0461
